Several values for one entry are separate records, joined by “and”; a condition that tells them apart may be missing. Identical values can stand only once.

The target in this assay is Nonstructural protein 3 (Zika virus, UniProt A0A024AXB9). In words: Functional biochemical assay to identify treatments for viral infectious disease that targets Zika NS2B-NS3 protease. Utilizing a direct enzyme activity measurement method, reading the fluorescence intensity is used to characterize the relative potency of inhibitors as IC50. Further details: species or system PRVABC59.
Sequence of Nonstructural protein 3 (A0A024AXB9 whole entry): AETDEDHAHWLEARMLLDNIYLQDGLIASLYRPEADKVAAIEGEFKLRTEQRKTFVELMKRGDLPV
Consider `NCc1ccc(-c2ncc(OCC3CCNCC3)nc2-c2ccc(-c3ccoc3)cc2)cc1`, for which the IC50 is more than 99.5 µM. Compound `NCc1ccc(-c2ncc(OCC3CCNCC3)nc2-c2ccc(C3CCOCC3)cc2)cc1` displayed an IC50 of more than 99.5 µM. In the case of `Cc1cc(Cl)c(C)c(C(=O)O)c1NS(=O)(=O)c1ccc(Oc2ccccc2Cl)cc1`, the IC50 was found to be 93.8 µM.

`NCc1cccc(NC(=O)[C@H](NC(=O)OCc2ccccc2)C(C2CCC2)C2CCC2)c1`: the IC50 was more than 99.5 µM. As for `CN1CCN(C2CN(C(=O)c3cc(Br)cc(C=O)c3)C2)CC1`, the IC50 was more than 99.5 µM. With `CCn1cc(-c2ccnc(N(C)C)c2)nc(N2CC[C@@H](CO)C2)c1=O`, the IC50 was more than 99.5 µM. In turn, `O=C(O)c1cc(Cl)ccc1CS(=O)(=O)c1ccc(Oc2ccccc2Cl)cc1` yielded an IC50 of more than 99.5 µM. Regarding `CCn1cc(-c2ccc(OC)c(C)c2)nc(N2CC[C@@H](CO)C2)c1=O`, the IC50 is more than 99.5 µM. `NCc1cccc(NC(=O)[C@@H](NC(=O)OCc2ccccc2)c2ccc(-c3ccnc(N)c3)cc2)c1` returned an IC50 of more than 99.5 µM. With `CCc1ccc(-c2ccc([C@@H](NC(=O)OCc3ccccc3)C(=O)Nc3cccc(CN)c3)cc2)cc1`, the IC50 stood at 5.8 µM. In turn, `CCn1cc(-c2cncc(OC)c2)nc(N2CC[C@@H](CO)C2)c1=O` had an IC50 of more than 99.5 µM.

Consider `O=S(=O)(Nc1ccc(Cl)cc1CO)c1ccc(Oc2ccccc2Cl)cc1`, for which the IC50 was more than 99.5 µM.

In the case of `CN1CCN(C2CCN(C(=O)c3cc(C=O)n(C)c3)CC2)CC1`, the IC50 is more than 99.5 µM.

Compound `Cn1nccc1-c1ccc([C@@H](NC(=O)OCc2ccccc2)C(=O)Nc2cccc(CN)c2)cc1` yielded an IC50 of more than 99.5 µM. Compound `CCn1cc(-c2cccc(CN(C)C)c2)nc(N2CC[C@@H](CO)C2)c1=O` displayed an IC50 of more than 99.5 µM. `CCn1cc(-c2ccccc2C(C)C)nc(N2CC[C@@H](CO)C2)c1=O`: the IC50 was more than 99.5 µM. `CCn1cc(-c2ccc3c(c2)CCNC3)nc(N2CC[C@@H](CO)C2)c1=O` gave an IC50 of more than 99.5 µM. Take `NCc1cccc(NC(=O)[C@@H](NC(=O)OCc2ccccc2)c2c(F)cccc2F)c1`: the IC50 was more than 99.5 µM. Take `c1ccc2c(CN3CCC(c4nn[nH]n4)CC3)c[nH]c2c1`: the IC50 is more than 99.5 µM. Compound `COC(=O)c1cc(Cl)ccc1NS(=O)(=O)c1ccc(O)cc1` gave an IC50 of more than 99.5 µM. Next, `CCn1cc(Cl)nc(N2CC[C@@H](CO)C2)c1=O`: more than 99.5 µM. The result for `CCn1cc(-c2cnn(C)n2)nc(N2CC[C@@H](CO)C2)c1=O` reads more than 99.5 µM; that for `O=C(O)c1cc(Cl)cc(NS(=O)(=O)c2ccc(Oc3ccccc3Cl)cc2)c1`, more than 99.5 µM; that for `CCn1cc(-c2ccc3ocnc3c2)nc(N2CC[C@@H](CO)C2)c1=O`, more than 99.5 µM. Take `CCOc1cccc(N2CC[C@@H](CO)C2)c1`: the IC50 was more than 99.5 µM.

`CCn1cc(-c2cccc(-n3cccn3)c2)nc(N2CC[C@@H](CO)C2)c1=O` came in with an IC50 of more than 99.5 µM. The result for `NCc1cccc(NC(=O)[C@@H](NC(=O)OCc2ccccc2)c2cccc(Br)c2)c1` reads 64.4 µM; that for `N#Cc1cc(F)cc(N2CC[C@H](CO)C2)c1`, more than 99.5 µM.

Regarding `CCn1cc(-c2cccc(OC)c2F)nc(N2CC[C@@H](CO)C2)c1=O`, the IC50 was more than 99.5 µM. The result for `CCn1cc(-c2cnn(-c3ccccc3)c2)nc(N2CC[C@@H](CO)C2)c1=O` reads more than 99.5 µM; that for `CCn1cc(-c2cn(C)nc2C)nc(N2CC[C@@H](CO)C2)c1=O`, more than 99.5 µM; that for `Cc1cnc(Oc2ccc(S(=O)(=O)Nc3ccc(Cl)cc3C(=O)O)cc2)cn1`, more than 99.5 µM.

With `CCn1cc(-c2ccnc(C)c2)nc(N2CC[C@@H](CO)C2)c1=O`, the IC50 was more than 99.5 µM. `NCc1cccc(NC(=O)[C@H](NC(=O)OCc2ccccc2)c2ccc(OCc3ccccc3)cc2)c1` displayed an IC50 of 6.93 µM. `O=C(O)c1cc(Cl)ccc1NS(=O)(=O)c1ccc(Oc2ccccc2Cl)nc1` yielded an IC50 of more than 99.5 µM. On to `O=C(O)c1cc(Cl)c(F)cc1NS(=O)(=O)c1ccc(Oc2ccccc2Cl)cc1`, for which the IC50 is 10.4 µM. The compound `Cc1cc(C)c(C(=O)N2C[C@H]3CN(C)CC[C@@]3(CO)C2)cc1C=O` gave an IC50 of more than 99.5 µM. The compound `O=C(O)c1cc(Oc2ccc(F)cc2)c(F)cc1NS(=O)(=O)c1ccc(Oc2ccccc2Cl)cc1` showed an IC50 of 3.67 µM. `COC(=O)c1cc(Cl)ccc1NS(=O)(=O)c1ccc(Br)cc1`: the IC50 was more than 99.5 µM. Next, `COc1cccc(-c2ccc([C@@H](NC(=O)OCc3ccccc3)C(=O)Nc3cccc(CN)c3)cc2)c1`: 7.03 µM and 8.01 µM; `CN(C)C[C@@]1(O)CCN(C(=O)c2cc(C=O)c[nH]2)C1`: more than 99.5 µM. In turn, `CC(C)CNC(=O)c1cc(Cl)c(F)cc1NS(=O)(=O)c1ccc(Oc2ccccc2Cl)cc1` registered an IC50 of 7.81 µM. The result for `Cc1cccc(-c2ccc([C@@H](NC(=O)OCc3ccccc3)C(=O)Nc3cccc(CN)c3)cc2)c1` reads 7.4 µM; that for `COC(=O)c1cc(Cl)ccc1NS(=O)(=O)c1ccc(Oc2ccccc2Cl)nc1`, more than 99.5 µM; that for `COC(=O)[C@@H]1CC2(CC[C@@H]1NS(=O)(=O)c1ccc(Oc3ccccc3Cl)cc1)CC2`, more than 99.5 µM. In turn, `CCn1cc(C(=O)NC)nc(N2CC[C@@H](CO)C2)c1=O` had an IC50 of more than 99.5 µM. With `NCc1cccc(CNC(=O)[C@H](NC(=O)OCc2ccccc2)c2ccc(OCc3ccccc3)cc2)c1`, the IC50 was 13.1 µM. `NCc1cccc(N2CCN(C(=O)OCc3ccccc3)[C@H](c3ccc(OCc4ccccc4)cc3)C2=O)c1` returned an IC50 of 21 µM. `NCc1cccc(NC(=O)[C@]2(NC(=O)OCc3ccccc3)CCOc3ccccc32)c1` came in with an IC50 of more than 99.5 µM. The result for `O=C(O)c1cc(Cl)ccc1NS(=O)(=O)c1ccc(N[C@H]2CCOC2)nc1` reads more than 99.5 µM; that for `COc1cc(Cl)cc(C(=O)O)c1NS(=O)(=O)c1ccc(Oc2ccccc2Cl)cc1`, 43.6 µM. `CCc1ccccc1-c1ccc([C@@H](NC(=O)OCc2ccccc2)C(=O)Nc2cccc(CN)c2)cc1` came in with an IC50 of 5.83 µM. Next, `CCn1cc(C2=CCCNC2)nc(N2CC[C@@H](CO)C2)c1=O`: more than 99.5 µM; `NCc1cccc(NC(=O)c2cc(Cl)cc(NC(=O)OCc3ccccc3)c2)c1`: 4.79 µM; `NCc1cccc(NC(=O)CN2CCN(C(=O)OCc3ccccc3)CC2)c1`: more than 99.5 µM. The compound `O=C(NCC(F)(F)F)c1cc(Cl)c(F)cc1NS(=O)(=O)c1ccc(Oc2ccccc2Cl)cc1` returned an IC50 of 10.6 µM. Turning to `CCn1cc(-c2ccc3nn(C)cc3c2)nc(N2CC[C@@H](CO)C2)c1=O`, the IC50 was more than 99.5 µM. As for `CCn1cc(-c2cc(F)ccc2C)nc(N2CC[C@@H](CO)C2)c1=O`, the IC50 was more than 99.5 µM. In turn, `O=C(NCc1cc(Cl)ccc1NS(=O)(=O)c1ccc(Oc2ccccc2Cl)cc1)C1CC1` gave an IC50 of more than 99.5 µM.

For `NCc1cccc(NC(=O)[C@H](NC(=O)OCc2ccccc2)C2CCCCC2)c1`, the IC50 was more than 99.5 µM. Compound `Cn1cc(-c2ccc([C@@H](NC(=O)OCc3ccccc3)C(=O)Nc3cccc(CN)c3)cc2)cn1` showed an IC50 of more than 99.5 µM. As for `CN(c1ncnc(-c2ccsc2C=O)n1)C1CCNCC1`, the IC50 was determined as 98.4 µM. Take `O=C(O)c1ccsc1NS(=O)(=O)c1ccc(Oc2ccccc2Cl)cc1`: the IC50 is 27.8 µM. `CCn1cc(-c2c[nH]c3ncccc23)nc(N2CC[C@@H](CO)C2)c1=O` came in with an IC50 of more than 99.5 µM. Next, `O=C(O)c1cc(F)c(F)cc1NS(=O)(=O)c1ccc(Oc2ccccc2Cl)cc1`: 31.9 µM. The result for `CCn1cc(-c2ccc(C(F)F)nc2)nc(N2CC[C@@H](CO)C2)c1=O` reads more than 99.5 µM; that for `C[C@@H](NC(=O)c1ccc2[nH]cc(C=O)c2c1)C1=CCN(C)CC1`, more than 99.5 µM; that for `CCc1ccc(-c2cn(CC)c(=O)c(N3CC[C@@H](CO)C3)n2)s1`, more than 99.5 µM. As to `NCc1cccc(NC(=O)[C@@H](NC(=O)OCc2ccccc2)c2ccc(-c3cncnc3)cc2)c1`, the IC50 was more than 99.5 µM. In turn, `C[C@H]1CN(C(=O)Cc2ccc(C=O)[nH]2)CCN1C1CCCC1` gave an IC50 of more than 99.5 µM. The compound `CCn1cc(-c2cnccc2C)nc(N2CC[C@@H](CO)C2)c1=O` registered an IC50 of more than 99.5 µM. On to `CCn1cc(-c2cnc3ccnn3c2)nc(N2CC[C@@H](CO)C2)c1=O`, for which the IC50 is more than 99.5 µM. Compound `O=C(O)c1cscc1NS(=O)(=O)c1ccc(Oc2ccccc2Cl)cc1` yielded an IC50 of more than 99.5 µM. `CC1(C)CCC([C@@H](NC(=O)OCc2ccccc2)C(=O)Nc2cccc(CN)c2)CC1` registered an IC50 of 94.3 µM. Compound `Cc1ccc(F)c(-c2ccc([C@@H](NC(=O)OCc3ccccc3)C(=O)Nc3cccc(CN)c3)cc2)c1` came in with an IC50 of 6.81 µM. The compound `NCc1cccc(NC(=O)[C@@H](NC(=O)OCc2ccccc2)c2ccc(-c3cccnc3F)cc2)c1` came in with an IC50 of 45.1 µM. For `NCc1cccc(NC(=O)[C@@H](NC(=O)OCc2ccccc2)c2ccc(-c3cc4cccnc4s3)cc2)c1`, the IC50 was 3.56 µM. The compound `O=C(O)CN(c1ccc(Cl)cc1)S(=O)(=O)c1ccc(Oc2ccccc2Cl)cc1` displayed an IC50 of more than 99.5 µM. In turn, `CCn1nccc1-c1cn(CC)c(=O)c(N2CC[C@@H](CO)C2)n1` gave an IC50 of more than 99.5 µM. Regarding `CCn1cc(-c2ccc([C@@H](NC(=O)OCc3ccccc3)C(=O)Nc3cccc(CN)c3)cc2)cn1`, the IC50 was 97.2 µM. Next, `O=Cc1ccc(CC(=O)N2C[C@@H](O)[C@H](N3CCOCC3)C2)cc1`: more than 99.5 µM. `Cc1nccnc1Oc1ccc(S(=O)(=O)Nc2ccc(Cl)cc2C(=O)O)cc1` showed an IC50 of more than 99.5 µM. On to `NCc1cccc(NC(=O)C2(CNC(=O)OCc3ccccc3)CCCC2)c1`, for which the half-inhibitory concentration (IC50) is more than 99.5 µM. On to `O=C(O)c1cc(Cl)ccc1NS(=O)(=O)c1ccc(OCc2ncccn2)cc1`, for which the IC50 was more than 99.5 µM.

Take `NC(=O)c1ccc(N2CC[C@@H](CO)C2)cc1`: the IC50 is more than 99.5 µM. Compound `O=C(NCC1CC1)[C@H]1CCCC[C@H]1NS(=O)(=O)c1ccc(Oc2ccccc2Cl)cc1` registered an IC50 of more than 99.5 µM.

The compound `CCn1cc(-c2ccncc2F)nc(N2CC[C@@H](CO)C2)c1=O` had an IC50 of more than 99.5 µM. In turn, `OC[C@H]1CCN(c2cnc3ccccc3n2)C1` registered an IC50 of more than 99.5 µM. Next, `CCn1ccnc(N2C[C@H](c3c[nH]c4ccccc34)[C@H](OC(C)=O)C2)c1=O`: more than 99.5 µM; `CCn1cc(-c2ccccc2C(=O)OC)nc(N2CC[C@@H](CO)C2)c1=O`: more than 99.5 µM.

Broadly, the IC50 is the concentration that gives 50% inhibition. Low readings indicate greater potency in that assay, high ones weaker potency in that assay.

For the origin of these results see ChEMBL document CHEMBL5604062, “ASAP - ZIKV NS2B-NS3 protease fluorescence dose response” (2024).
